Experiments:
[1] = molecular target: T1, Endothelial lipase (EL) (Homo sapiens, UniProt Q9Y5X9); assay: Endothelial lipase (EL) enzymatic assay, fluorescent substrate A10070 in DMPG vesicles; format: biochemical; conditions: EL from conditioned media of HT-1080 cells; compound preincubated 30 min at 37° C; read-out: EL IC50
T1 construct: HT-1080 cells that were transformed using RAGE technology (Athersys) to overexpress endogenous EL; endogenous in cells; conditioned medium used
T1 sequence (Q9Y5X9 21-500): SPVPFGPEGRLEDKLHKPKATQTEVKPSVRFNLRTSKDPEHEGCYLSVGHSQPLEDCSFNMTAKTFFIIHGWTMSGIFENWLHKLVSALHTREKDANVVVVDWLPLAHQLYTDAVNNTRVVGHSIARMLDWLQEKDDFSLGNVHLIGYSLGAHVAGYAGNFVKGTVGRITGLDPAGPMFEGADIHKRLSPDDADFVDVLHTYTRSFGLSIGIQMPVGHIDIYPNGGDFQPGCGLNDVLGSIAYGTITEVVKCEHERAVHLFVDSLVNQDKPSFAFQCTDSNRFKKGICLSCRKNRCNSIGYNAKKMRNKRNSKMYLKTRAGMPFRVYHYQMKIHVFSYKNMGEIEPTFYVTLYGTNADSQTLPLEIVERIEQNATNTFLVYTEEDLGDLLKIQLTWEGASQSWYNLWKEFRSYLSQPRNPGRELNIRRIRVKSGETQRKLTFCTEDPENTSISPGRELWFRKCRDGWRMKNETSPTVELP
Method in brief: (§1)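 Vesicles prepared: A10070 dried with DMPG, resuspended in HEPES pH 8.0/NaCl/EDTA, sonicated on ice. Enzyme incubated with compound 30 min at 37° C. Reaction started with 1:10 diluted vesicles. Fluorescence (490/530 nm) followed 60 min; slope from 300–900 secs gives rate.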

[2] = molecular target: T2, hepatic lipase (HL) (Homo sapiens, UniProt P11150); assay: Hepatic lipase (HL) enzymatic assay, fluorescent substrate A10070 in DMPG vesicles; format: biochemical; conditions: HL partially purified from conditioned media of COS cells; compound preincubated 30 min at 37° C; read-out: HL IC50
T2 construct: made in house; host or cells: COS cells (conditioned medium, partially purified)
T2 sequence (P11150 23-499): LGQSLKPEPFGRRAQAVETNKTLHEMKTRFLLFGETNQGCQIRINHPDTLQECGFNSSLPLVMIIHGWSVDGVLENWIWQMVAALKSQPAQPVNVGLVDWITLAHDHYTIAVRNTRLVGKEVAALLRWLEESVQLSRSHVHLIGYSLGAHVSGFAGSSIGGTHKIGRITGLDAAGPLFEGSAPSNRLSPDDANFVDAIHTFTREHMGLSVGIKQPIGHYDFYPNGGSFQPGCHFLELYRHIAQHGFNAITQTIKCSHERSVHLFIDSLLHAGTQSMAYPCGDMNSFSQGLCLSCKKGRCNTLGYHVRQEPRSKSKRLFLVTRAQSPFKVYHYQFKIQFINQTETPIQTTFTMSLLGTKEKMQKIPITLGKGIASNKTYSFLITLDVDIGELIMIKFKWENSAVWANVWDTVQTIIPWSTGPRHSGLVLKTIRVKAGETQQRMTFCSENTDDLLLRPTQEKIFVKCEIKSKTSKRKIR
Method in brief: as §1

For `CS(=O)(=O)C(c1nnc(CC2SC(=O)NC2=O)o1)c1nc2cc(F)c(-c3ccccc3)cc2s1` (stereo not drawn) [Example 160, 5-((5-((5-fluoro-6-phenyl-1,3-benzothiazol-2-yl)(methylsulfonyl)methyl)-1,3,4-oxadiazol-2-yl)methyl)-1,3-thiazolidine-2,4-dione], the IC50 [1] was under 10 nM and the IC50 [2] was 13 nM.

Work on `COC(=O)CCS(=O)(=O)C(c1nnc(CC2SC(=O)NC2=O)o1)c1nc2cc(F)c(-c3ccccc3)cc2s1` (stereo not drawn) [Example 161, methyl 3-(((5-((2,4-dioxo-1,3-thiazolidin-5-yl)methyl)-1,3,4-oxadiazol-2-yl)(5-fluoro-6-phenyl-1,3-benzothiazol-2-yl)methyl)sulfonyl)propanoate] yielded an IC50 [1] of under 10 nM and an IC50 [2] of under 10 nM.

Work on `O=C1NC(=O)C(Cc2nnc(C(c3nc4ccc(-c5ccccc5)c(F)c4s3)S(=O)(=O)Cc3ccccc3)o2)S1` (stereo not drawn) [Example 162, 5-((5-((benzylsulfonyl)(7-fluoro-6-phenyl-1,3-benzothiazol-2-yl)methyl)-1,3,4-oxadiazol-2-yl)methyl)-1,3-thiazolidine-2,4-dione] yielded an IC50 [1] of under 10 nM and an IC50 [2] of under 10 nM.

`CS(=O)(=O)C(c1nnc(CS(N)(=O)=O)o1)c1nc2c(F)cc(-c3ccccc3)cc2s1` (stereo not drawn) [Example 163, 1-(5-((4-fluoro-6-phenyl-1,3-benzothiazol-2-yl)(methylsulfonyl)methyl)-1,3,4-oxadiazol-2-yl)methanesulfonamide] gave an IC50 [1] of under 10 nM and an IC50 [2] of under 10 nM.

With `CS(=O)(=O)C(c1nnc(CC2SC(=O)NC2=O)o1)c1nc2cc(C(F)(F)F)c(-c3ccccc3)cc2s1` (stereo not drawn) [Example 164, 5-((5-((methylsulfonyl)(6-phenyl-5-(trifluoromethyl)-1,3-benzothiazol-2-yl)methyl)-1,3,4-oxadiazol-2-yl)methyl)-1,3-thiazolidine-2,4-dione] the IC50 [1] was under 10 nM and the IC50 [2] was 22 nM.

In the case of `CC(C)Cn1cc(-c2cc(F)c3nc(C(c4nnc(CC5SC(=O)NC5=O)o4)S(=O)(=O)Cc4ccccc4)sc3c2)cn1` (stereo not drawn) [Example 165, 5-((5-((benzylsulfonyl)(4-fluoro-6-(1-isobutyl-1H-pyrazol-4-yl)-1,3-benzothiazol-2-yl)methyl)-1,3,4-oxadiazol-2-yl)methyl)-1,3-thiazolidine-2,4-dione], the IC50 [1] is reported as under 10 nM and the IC50 [2] is reported as 24 nM.

`Cn1cc(-c2cc3sc(C(c4nnc(CNC(=O)OC(C)(C)C)o4)S(=O)(=O)Cc4ccccc4)nc3cc2F)cn1` (stereo not drawn) [Example 166, tert butyl ((5-((benzylsulfonyl)(5-fluoro-6-(1-methyl-1H-pyrazol-4-yl)-1,3-benzothiazol-2-yl)methyl)-1,3,4-oxadiazol-2-yl)methyl)carbamate] was tested, and the IC50 [1] was 23 nM and the IC50 [2] was 32 nM.

Work on `O=C(NCCS(=O)(=O)C(c1nnc(CC2SC(=O)NC2=O)o1)c1nc2cc(F)c(-c3ccccc3)cc2s1)OCc1ccccc1` (stereo not drawn) [Example 167, benzyl (2-(((5-((2,4-dioxo-1,3-thiazolidin-5-yl)methyl)-1,3,4-oxadiazol-2-yl)(5-fluoro-6-phenyl-1,3-benzothiazol-2-yl)methyl)sulfonyl)ethyl)carbamate] yielded an IC50 [1] of under 10 nM and an IC50 [2] of under 10 nM.

`CS(=O)(=O)C(c1nnc(C[C@@H]2NS(=O)(=O)NC2=O)o1)c1nc2cc(F)c(-c3ccccc3)cc2s1` (stereo partly drawn) [Example 168, (4S)-4-((5-((5-fluoro-6-phenyl-1,3-benzothiazol-2-yl)(methylsulfonyl)methyl)-1,3,4-oxadiazol-2-yl)methyl)-1,2,5-thiadiazolidin-3-one 1,1-dioxide] gave an IC50 [1] of under 10 nM and an IC50 [2] of 19 nM.

`CC(=O)NS(=O)(=O)Cc1nnc(C(c2nc3ccc(-c4ccccc4)cc3s2)S(C)(=O)=O)o1` (stereo not drawn) [Example 169, N-(((5-((Methylsulfonyl)(6-phenyl-1,3-benzothiazol-2-yl)methyl)-1,3,4-oxadiazol-2-yl)methyl)sulfonyl)acetamide] gave an IC50 [1] of under 10 nM and an IC50 [2] of 160 nM.

`CC(O)CS(=O)(=O)C(c1nnc(CNS(N)(=O)=O)o1)c1nc2ccc(-c3ccccc3)cc2s1` (stereo not drawn) [Example 170, N-((5-(((2-Hydroxypropyl)sulfonyl)(6-phenyl-1,3-benzothiazol-2-yl)methyl)-1,3,4-oxadiazol-2-yl)methyl)sulfamide] was tested, and the IC50 [1] was under 10 nM and the IC50 [2] was under 10 nM.

Work on `CS(=O)(=O)NCc1nnc(C(c2nc3ccc(-c4ccc(F)nc4)cc3s2)S(C)(=O)=O)o1` (stereo not drawn) [Example 172, N-((5-((6-(6-Fluoro-3-pyridinyl)-1,3-benzothiazol-2-yl)(methylsulfonyl)methyl)-1,3,4-oxadiazol-2-yl)methyl)methanesulfonamide] yielded an IC50 [1] of 240 nM and an IC50 [2] of 32 nM.

For `CS(=O)(=O)NCc1nnc(C(c2nc3ccc(-c4ccc(C(=O)N5CCOCC5)cc4)cc3s2)S(C)(=O)=O)o1` (stereo not drawn) [Example 173, N-((5-((Methylsulfonyl)(6-(4-(4-morpholinylcarbonyl)phenyl)-1,3-benzothiazol-2-yl)methyl)-1,3,4-oxadiazol-2-yl)methyl)methanesulfonamide], the IC50 [1] was 35 nM and the IC50 [2] was 58 nM.

`Cn1cc(-c2ccc3nc(C(c4nnc(CNS(N)(=O)=O)o4)S(=O)(=O)CCC(=O)O)sc3c2)cn1` (stereo not drawn) [Example 174, 3-(((6-(1-Methyl-1H-pyrazol-4-yl)-1,3-benzothiazol-2-yl)(5-((sulfamoylamino)methyl)-1,3,4-oxadiazol-2-yl)methyl)sulfonyl)propanoic acid] gave an IC50 [1] of 11 nM and an IC50 [2] of 124 nM.

For `CCCOCCCNC(=O)Cc1nnc(C(c2nc3ccc(-c4ccc(C(=O)N5CCOCC5)cc4)cc3s2)S(C)(=O)=O)o1` (stereo not drawn) [Example 175, 2-(5-((Methylsulfonyl)(6-(4-(4-morpholinylcarbonyl)phenyl)-1,3-benzothiazol-2-yl)methyl)-1,3,4-oxadiazol-2-yl)-N-(3-propoxypropyl)acetamide], the IC50 [1] was 12 nM and the IC50 [2] was 89 nM.

`CC(O)CCNC(=O)Cc1nnc(C(c2nc3ccc(-c4ccc(C(=O)N5CCOCC5)cc4)cc3s2)S(C)(=O)=O)o1` (stereo not drawn) [Example 176, N-(3-hydroxybutyl)-2-(5-((methylsulfonyl)(6-(4-(4-morpholinylcarbonyl)phenyl)-1,3-benzothiazol-2-yl)methyl)-1,3,4-oxadiazol-2-yl)acetamide] was tested, and the IC50 [1] was 10 nM and the IC50 [2] was 465 nM.

`CC(O)CCNC(=O)Cc1nnc(C(c2nc3ccc(-c4ccc(C(=O)N5CCOCC5)cc4)cc3s2)S(=O)(=O)Cc2ccccc2)o1` (stereo not drawn) [Example 177, 2-(5-((benzylsulfonyl)(6-(4-(4-morpholinylcarbonyl)phenyl)-1,3-benzothiazol-2-yl)methyl)-1,3,4-oxadiazol-2-yl)-N-(3-hydroxybutyl) acetamide] gave an IC50 [1] of 14 nM and an IC50 [2] of 591 nM.

`O=C(Cc1nnc(C(c2nc3ccc(-c4ccc(C(=O)N5CCOCC5)cc4)cc3s2)S(=O)(=O)Cc2ccccc2)o1)NCC1(O)CCC1` (stereo not drawn) [Example 178, 2-(5-((benzylsulfonyl)(6-(4-(4-morpholinylcarbonyl)phenyl)-1,3-benzothiazol-2-yl)methyl)-1,3,4-oxadiazol-2-yl)-N-((1-hydroxycyclobutyl)methyl) acetamide] showed an IC50 [1] of under 10 nM and an IC50 [2] of 277 nM.

`CC(O)CNC(=O)Cc1nnc(C(c2nc3ccc(-c4ccc(C(=O)N5CCOCC5)cc4)cc3s2)S(=O)(=O)Cc2ccccc2)o1` (stereo not drawn) [Example 179, 2-(5-((benzylsulfonyl)(6-(4-(4-morpholinylcarbonyl)phenyl)-1,3-benzothiazol-2-yl)methyl)-1,3,4-oxadiazol-2-yl)-N-(2-hydroxypropyl) acetamide] gave an IC50 [1] of under 10 nM and an IC50 [2] of 518 nM.

For `O=C(Cc1nnc(C(c2nc3ccc(-c4ccc(C(=O)N5CCOCC5)cc4)cc3s2)S(=O)(=O)Cc2ccccc2)o1)NC1CCCC1` (stereo not drawn) [Example 180, 2-(5-((benzylsulfonyl)(6-(4-(4-morpholinylcarbonyl)phenyl)-1,3-benzothiazol-2-yl)methyl)-1,3,4-oxadiazol-2-yl)-N-cyclopentylacetamide], the IC50 [1] was under 10 nM and the IC50 [2] was 44 nM.

With `CS(=O)(=O)C(c1nnc(C[C@@H]2NS(=O)(=O)N(C3CC3)C2=O)o1)c1nc2ccc(-c3ccccc3)cc2s1` (stereo partly drawn) [Example 181] the IC50 [1] was 130 nM and the IC50 [2] was 56 nM.
